The values below are quoted from earlier work in patent US20100221361A1, “STABLE OXIDIZING BROMINE COMPOSITION, METHOD OF MANUFACTURE AND USE THEREOF FOR BIOFOULING CONTROL” (priority 2009, published 2010).

SMILES strings stand for the structures.

The conditions of this data set: in water.

`BrBr` [elemental liquid bromine, bromine]: the solubility is under 4 g/ 100 g water.
